Source: patent US20020004632A1 (priority 2000, published 2002)

Tests used:
[1] = test system: Rat hippocampal CA1 neurons; test: Spine morphology of transfected neurons in cultured hippocampal brain slices, 2PLSM imaging and automatic spine analysis algorithm; format: cell-based; conditions: biollistic cotransfection with GFP; compared to the GFP control; at least 5 neurons per group
Description: Cultured hippocampal brain slices were prepared from 7 day old rats. After five days in vitro a small subset of neurons were biollistically transfected (for example, Lo, et al., (1994). Neuronal transfection in brain slices using particle-mediated gene transfer, Neuron 13, 1263-1268, the contents of which are hereby incorporated by reference) with a plasmid carrying the gene for enhanced green fluorescent protein (GFP) (commercially available from Clonetech) At least two days after transfection, slices were transferred to a perfusion chamber for imaging. Labeled neurons were identified and imaged using a custom-made 2PLSM laser scanning microscope (as described in Mainen, Z. F., Maletic-Savatic, M., Shi, S. H., Hayashi, Y., Malinow, R., and Svoboda, K. (1999), Two-photon imaging in living brain slices, Methods 18, 231-239, the contents of which are hereby incorporated by reference). The light source was a Ti:sapphire laser running at a wavelength of ≈990 nm (repetition frequency 80 MHz; pulse length 150 fs). The average power delivered to the backfocal plane of the objective (40x, NA 0.8) varied depending on the imaging depth (range 30 to 150 mW). Fluorescence was detected in whole-field detection mode with a photomultiplier tube.
mTOR kinase controls the phosphorylation of the translation regulators p70^56k and 4E-BP1. […]

dendritic spines [2] = conditions: low levels; cited from earlier work
dendritic spines [3] = conditions: low levels; cited from earlier work; remark: listed apart in the source

| Compound | spine density [1] | actin-based spine motility (dendritic spines [2]) | lesion-induced spine degeneration (dendritic spines [3]) |
| --- | --- | --- | --- |
| mTOR wt: wild-type mTOR kinase expressed from a plasmid transfected by biollistic gene transfer | increased | – | – |
| Cc1onc(O)c1CC(N)C(=O)O (stereo not drawn) [AMPA, alpha-amino-3-hydroxy-5-methyl-4-isoxalone] | – | abolished | block |
| N[C@@H](CCC(=O)O)C(=O)O [glutamate] | – | abolished | – |
